The assay in a line: Ex vivo antiprion activity against sheep 127S scrapie prion protein infected in mouse MovS6 cells assessed as PK digestion resistant-PrPSc accumulation after 6 days by immunoblot analysis. In kind it is cell-based. The note with it: Ovis aries, MovS6, 144 h.

One may read the IC50 as the point on the concentration scale where inhibition reaches its midpoint. Regarding `Nc1nc2ccccc2c2cc(F)ccc12`, the IC50 came out at 5 µM.
The result for `Nc1cccc2c1c(N)nc1ccccc12` reads 30 µM.
As to `Nc1nc2ccccc2c2ccc(F)cc12`, the IC50 came out at 15 µM.
Take `Nc1nc2ccccc2c2cccc(F)c12`: the IC50 is more than 20 µM.
For the compound `[N-]=[N+]=Nc1ccc2c(c1)c(N)nc1ccccc12`, the IC50 amounted to 10 µM.
With `Nc1nc2ccccc2c2ccccc12`, the concentration for half-maximal inhibition (IC50) was less than 5 µM.
On to `Nc1nc2ccccc2c2c1CCCC2`, for which the IC50 was less than 5 µM.
On to `Nc1nc2ccccc2c2ccc(C(F)(F)F)cc12`, for which the IC50 stood at 10 µM.
In the case of `COc1cc(OC)c2nc(N)c3ccccc3c2c1`, the half-inhibitory concentration (IC50) is less than 1.8 µM.
For the compound `Nc1nc2ccccc2c2cc([N+](=O)[O-])ccc12`, the concentration for half-maximal inhibition (IC50) was less than 5 µM.
Regarding `Nc1nc2ccccc2c2ccc([N+](=O)[O-])cc12`, the IC50 worked out at 20 µM.
As to `Nc1nc2ccccc2c2c1CC=CC2`, the IC50 worked out at 1.8 µM.

(Values after ChEMBL document CHEMBL3286145, “Evaluation of the antiprion activity of 6-aminophenanthridines and related heterocycles” (Eur J Med Chem, 2014).)
